Test results from patent US20220117938A1, “COMBINATON THERAPY WITH A DON PRODRUG AND AN IMMUNE CHECKPOINT INHIBITOR” (DRACEN PHARMACEUTICALS, INC., priority 2019, published 2022).

Test system: Ninety four (94) cell lines and PBMC
Experiment: Cell viability assay, SRB staining, 94 cell lines and PBMC (Example 7, Experiment 2)
Type: cell-based
Protocol: Ninety four (94) cell lines were seeded at a density varying from 500 to 7000 cells/well depending on their growth characteristics. PBMC were seeded at the density 50,000-100,000 cells/well. Cells were incubated for 48 h prior to compound treatment. Compound 1 and DON were evaluated at a concertation range of 1 nM up to 100 μM. Compound 1 dilutions in DMSO and DON dilutions in PBS were performed in 96-well 0.5 mL plates (Greiner Bio-One, Germany). Compounds were then diluted 1:100 in RPMI medium. […] of cells were treated by mixing with 10 μL of the compound-containing media (resulting in a final DMSO concentration of 0.1%). The cells were allowed to grow at 37° C. for 120 h. Cells were fixed to the surface by addition of 10% TCA (for adherent growing cells) or 50% TCA (for semi-adherent growing cells or cells growing in suspension). After an hour of incubation at 4° C., plates were washed twice with 400 μL of deionized water and dried. Cells were then stained with 100 μL of 0.04% wt/v SRB. The plates were incubated at room temperature for at least 30 min and washed six times with 1% acetic acid to remove unbound stain. The plates were left to dry at room temperature and bound SRB was solubilized with 100 μL of 10 mM Tris base. Optical density was measured at 492, 520 and 560 nm using a Deelux-LED96 plate reader (Deelux Labortechnik GmbH, Germany).
Cell lines were purchased directly from the ATCC, NCI, CLS, and DSMZ cell line collections. A master bank and working aliquots were prepared. Cells used for the study had undergone less than 20 passages. To rule out potential contamination or wrong assignment, all cell lines were tested by STR analysis. Absence of mycoplasma contamination was confirmed for all cell lines used in the studies.
The cell lines were grown in the media recommended by the suppliers in the presence of 100 U/mL penicillin and 100 μg/mL streptomycin supplied with 10% FCS (PAA, Germany). RPMI 1640, DMEM, and MEM Earle's medium were from PAA (Coelbe, Germany), supplements 2 mM L-glutamine, 1 mM Na-pyruvate and 1% NEAA were from PAA (Coelbe, Germany), 2.5% horse serum, hydrocortisone, transferin, beta-estradiol, selenite and 1 U/mL insulin from Sigma-Aldrich (Munich, Germany). RPMI medium was used for culturing the following cell lines: 5637, 22RV1, 7860, A2780, A431, A549, ACHN, ASPC1, BT20, BXPC3, CAKI1, CLS439, COLO205, COLO678, DLD1, DU145, EFO21, EJ28, HCT15, HS578T, IGROV1, JAR, LOVO, MCF7, MDA MB231, MDA MB435, MDA MB436, MDA MB468, MHHES1, MT3, NCI H292, NCI H358M, NCI H460, NCIH82, OVCAR3, OVCAR4, PANC 1005 (addition of insulin), PBMC, PC3, RDES, SF268, SF295, SKBR3, SK MEL28, SKMEL5, SKOV3, SW620, U2OS, UMUC3, and U031.
DMEM medium was used to culture A204, A375, A673, C33A, CASKI, HCT116, HEPG2, HS729, HT29, J82, MG63, MIAPACA2 (addition of horse serum), PANC1, PLCPRF5, RD, SAOS2, SKLMS1, SKNAS, SNB75, T24, and TE671.
MEM Earle's medium was used for CACO2, CALU6, HEK293, HELA, HT1080, IMR90, JEG3, JIMT1, SKHEP1, SKNSH, and U87MG. Cell seeding conditions were optimized for each cell line. The cell seeding density varied from 500 to 7000 cells/well depending on their growth characteristics. Peripheral blood mononuclear cells (PBMC) were freshly isolated from whole blood of an anonymous donor through density gradient centrifugation using Ficoll solution (d=1.077). In short, blood was diluted 1:1 with PBS and carefully placed on the Ficoll. After centrifugation 1000×g for 15 min (braking rate 0), the ring containing mainly leucocytes was collected in PBS followed by three times washing with PBS to reduce the platelets. PBMC were seeded at the density 50,000-100,000 cells/well. Cells were grown in 5% CO2 atmosphere in a NB-203XXL incubator (N-BIOTEK Inc., Korea).
Ninety-four cell lines were tested in parallel. Cell growth and treatment were performed in 96 well microtitre plates CELLSTAR® (Greiner Bio-One, Germany). […]

[1] = Homo sapiens, 22Rv1, 22RV1, prostate
[2] = Homo sapiens, 786-0, 786O, kidney
[3] = Homo sapiens, A204, A204, muscle
[4] = Homo sapiens, A673, A673, muscle
[5] = Homo sapiens, A2780, A2780, ovary
[6] = Homo sapiens, A-375, A375, skin
[7] = Homo sapiens, A-431, A431, skin
[8] = Homo sapiens, ASPC1, ASPC1, pancreas
[9] = Homo sapiens, BT-20, BT20, breast
[10] = Homo sapiens, C-33-A, C33A, endometrial
[11] = Homo sapiens, CAKI-1, CAKI1, kidney
[12] = Homo sapiens, COLO 205, COLO205, colon
[13] = Homo sapiens, Ca-Ski, CASKI, endometrial
[14] = Homo sapiens, Caco-2, CACO2, colon
[15] = Homo sapiens, Calu-6, CALU6, lung
[16] = Homo sapiens, DLD-1, DLD1, colon
[17] = Homo sapiens, DU-145, DU145, prostate
[18] = Homo sapiens, EFO-21, EFO21, ovary
[19] = Homo sapiens, EJ-28, EJ28, bladder
[20] = Homo sapiens, Granta-519, GRANTA-519, hematological
[21] = Homo sapiens, HCT-15, HCT15, colon
[22] = Homo sapiens, HCT-116, HCT116, colon
[23] = Homo sapiens, HEK293, HEK293, kidney
[24] = Homo sapiens, HL-60, HL-60, hematological
[25] = Homo sapiens, HT-29, HT29, colon
[26] = Homo sapiens, HT-1080, HT1080, connective tissue
[27] = Homo sapiens, HeLa, endometrial
[28] = Homo sapiens, HepG2, HEPG2, liver
[29] = Homo sapiens, IGROV-1, IGROV1, ovary
[30] = Homo sapiens, JEG-3, JEG3, placenta
[31] = Homo sapiens, JIMT-1, JIMT1, breast
[32] = Homo sapiens, K562, K-562, hematological
[33] = Homo sapiens, Kasumi 1, KASUMI-1, hematological
[34] = Homo sapiens, L-363, L-363, hematological
[35] = Homo sapiens, MCF7, MCF7, breast
[36] = Homo sapiens, MDA-MB-231, MDAMB231, breast
[37] = Homo sapiens, MDA-MB-435, MDAMB435, skin
[38] = Homo sapiens, MDA-MB-436, MDAMB436, breast

CC(=O)N[C@@H](Cc1c[nH]c2ccccc12)C(=O)N[C@@H](CCC(=O)C=[N+]=[N-])C(=O)OC(C)C [Compound 1, Isopropyl (S)-2-((S)-2-acetamido-3-(1H-indol-3-yl)propanamido)-6-diazo-5-oxohexanoate]
IC50 (5637, bladder): 2.43 µM | IC50 (CLS439, bladder): 8.43 µM | GI50 [1]: 1.02 µM | IC50 [1]: 1.1 µM | GI50 [2]: 3.34 µM | IC50 [2]: 3.84 µM | GI50 [3]: 2.65 µM | IC50 [3]: 20.3 µM | GI50 (Homo sapiens, A549, A549, lung): 9.04 µM | IC50 (Homo sapiens, A549, A549, lung): 9.28 µM | GI50 [4]: 3.49 µM | IC50 [4]: 3.87 µM | GI50 [5]: 3.04 µM | IC50 [5]: 3.28 µM | GI50 [6]: 4.13 µM | IC50 [6]: 4.39 µM | GI50 [7]: 14.2 µM | IC50 [7]: 18.4 µM | GI50 (Homo sapiens, ACHN, kidney): 7.88 µM | IC50 (Homo sapiens, ACHN, kidney): 8.98 µM | GI50 [8]: 5.96 µM | IC50 [8]: 8.36 µM | GI50 [9]: 20 µM | IC50 [9]: 53.1 µM | GI50 (Homo sapiens, BXPC-3, BXPC3, pancreas): 4.24 µM | GI50 [10]: 7.46 µM | IC50 [10]: 7.69 µM | GI50 [11]: 5.3 µM | IC50 [11]: 6.84 µM | GI50 [12]: 2.73 µM | IC50 [12]: 4.66 µM | GI50 (Homo sapiens, COLO-678, COLO678, colon): 93 µM | GI50 [13]: 5.9 µM | IC50 [13]: 7.83 µM | GI50 [14]: 19.4 µM | IC50 [14]: 28.2 µM | GI50 [15]: 5.88 µM | IC50 [15]: 7.07 µM | GI50 [16]: 9.25 µM | IC50 [16]: 9.59 µM | GI50 [17]: 8.82 µM | IC50 [17]: 10.9 µM | GI50 [18]: 6.86 µM | IC50 [18]: 14.1 µM | GI50 [19]: 5.82 µM | IC50 [19]: 6.55 µM | GI50 [20]: 0.687 µM | IC50 [20]: 0.768 µM | GI50 [21]: 20.1 µM | IC50 [21]: 21.7 µM | GI50 [22]: 1.31 µM | IC50 [22]: 1.33 µM | GI50 [23]: 9.21 µM | IC50 [23]: 10.4 µM | GI50 [24]: 1.09 µM | IC50 [24]: 1.1 µM | GI50 [25]: 0.88 µM | IC50 [25]: 1.07 µM | GI50 [26]: 2.61 µM | IC50 [26]: 3.04 µM | GI50 [27]: 11.8 µM | IC50 [27]: 13.4 µM | GI50 [28]: 7.87 µM | IC50 [28]: 9.85 µM | GI50 (Homo sapiens, Hs-578T, HS578T, breast): 36.4 µM | GI50 [29]: 8.98 µM | IC50 [29]: 10.7 µM | GI50 (Homo sapiens, IMR-90, IMR90, lung): 14.6 µM | GI50 [30]: 3.87 µM | IC50 [30]: 4.78 µM | GI50 [31]: 19.4 µM | IC50 [31]: 40.6 µM | GI50 [32]: 1.15 µM | IC50 [32]: 1.2 µM | GI50 [33]: 3.17 µM | IC50 [33]: 7.95 µM | GI50 [34]: 0.546 µM | IC50 [34]: 0.717 µM | GI50 (Homo sapiens, LoVo, colon): 5.16 µM | IC50 (Homo sapiens, LoVo, colon): 5.55 µM | GI50 [35]: 4.13 µM | IC50 [35]: 8.59 µM | GI50 [36]: 11.6 µM | IC50 [36]: 14.6 µM | GI50 [37]: 14.7 µM | IC50 [37]: 15.2 µM | GI50 [38]: 49.3 µM | IC50 [38]: 131 µM
